The test concerns FL-SMN mRNA (SMN transcript containing exons 7 and 8). Nature of the test: Live-cell assay to measure changes in FL-SMN mRNA levels (qPCR) after exposure to the compounds. The format is cell-based, human. The conditions noted are these: fibroblasts derived from patients SMA (GM03813); 24 hours incubation. Here is the method:
In this example, each test compound was administered to cultured cells, and changes in the expression levels of mRNA transcripts of SMN, i.e., FL-SMN containing exons 7 and 8 and Delta7 with exon 7 skipped, were examined using PCR.
Fibroblasts derived from patients SMA (GM03813) (Coriell Cell Repositories) were cultured with passages using DMEM (High Glucose) (Life Technologies) supplemented with 10% FBS (Life Technologies). Cells were seeded in tissue-culture-treated 96-well plates (Corning) at 1.5 or 0.5×10^4 cells/well in 100 μL of medium. The cells were incubated in 5% CO2 for 6 hours, and the medium was replaced with 100 μL of medium (with DMSO, 0.1% final concentration) containing each of the compounds given in the Examples. After additional incubation for 24 hours under the same conditions, the cells were washed once with D-PBS(—) (Wako) and 25 μL/well of the lysis solution (with gDNA Remove) contained in the SuperPrep (registered trademark) Cell Lysis & RT Kit for qPCR (Toyobo life science) was added according to the manufacturer's instructions so that the cells were lysed and the genomic DNA was degraded. Furthermore, 5 μL of the STOP solution (with RNase Inhibitor) contained in the kit was added to provide RNA-containing solutions. Six microliters of the RNA-containing solutions were each mixed with 14 μL of a reverse transcription solution containing transcriptase together with dNTP, random primers and an oligodT primer. Reverse transcription was performed at 37° C. (15 min), 50° C. (5 min), and 98° C. (5 min), to give total cDNAs. The total cDNAs were diluted 30-fold with Ultra-pure water (Invitrogen) to measure the expression levels of FL-SMN, delta7, and GAPDH. For quantitative PCR (qPCR), a PCR solution was prepared according to the instructions of the manufacturer of the THUNDERBIRD (registered trademark) Probe qPCR Mix (Toyobo life science). Five microliters of the diluted total cDNA solutions and oligo DNA standard solutions, each containing either 001-Standard FL-SMN (SEQ ID NO. 1) or 002-Standard delta7 (SEQ ID NO. 2), were each mixed with 10 μL of each of the PCR solutions containing a qPCR probe, primers, and PCR enzyme. […] The oligoDNA standard solutions were prepared as those containing either of 5×10^8, 5×10^7, 5×10^6, 5×10^5, 5×10^4, 5×10^3, 5×10^2, 5×10, 5, or 0 copies. For the oligo DNA standards, primers, and probes, oligonucleotides synthesized by Integrated DNA Technologies, Inc. (IDT) were used. […] FIGS. 3B and 3D show their detection mechanisms. The final concentrations of the primers and probes added were 0.4 μM and 0.15 μM, respectively. The qPCR was performed using the following conditions on a ViiA7 instrument (Applied Biosystems): first stage: 95° C. (1 min)→second stage: 95° C. (15 sec)→third stage: 60° C. (1 min)→40 repeated cycles of the second and third stages. The GAPDH mRNA was used as the internal control, and the commercially available 20×gene expression PCR assay (Life Technologies, 4326317E, Hs99999905_ml) and Standard GAPDH (SEQ ID NO. 7) (see FIG. 1) was used to determine the number of copies of this gene. The measurement values obtained for the samples to be measured were standardized against the respective value obtained for GAPDH.
Using the above-mentioned assays, the activities of the compounds of the Examples were evaluated. Specifically, the percentages of the FL-SMN and delta7 values obtained using DMSO without the compounds and standardized against GAPDH were set as 100% and those of the FL-SMN and delta7 values obtained at the time of administration of the compounds and standardized against GAPDH were calculated. […]
A general note: Real-time PCR tracks product formation cycle by cycle.

The record followed here is patent publication US12012410B2, “Substituted pyrazolo[1,5-a]pyrazines for spinal muscular atrophy” (REBORNA BIOSCIENCES, INC., priority 2018, dated 2024).

For the compound `Cc1cn2cc(-c3ccc4nc(C5CCN(C)CC5)[nH]c(=O)c4c3)cc(C)c2n1` [Example 23, 6-(2,8-dimethylimidazo[1,2-a]pyridine-6-yl)-2-(1-methylpiperidin-4-yl) kinazoline-4 (3H)—one], the “Percentage of increase (FL-SMN mRNA standardized against GAPDH, DMSO control set as 100%)” value is given as “*** (equal to or higher than 150% but lower than 180%)”.
As for `Cc1nc2c(F)cc(-c3cc(F)c4nc(C5CCN(C)CC5)[nH]c(=O)c4c3)cc2o1` [Example 24, 8-Fluoro-6-(4-fluoro-2-methyl-1,3-benzoxazole 6-yl)-2-(1-methylpiperidin-4-yl) quinazoline 4-(3H)-one], the “Percentage of increase (FL-SMN mRNA standardized against GAPDH, DMSO control set as 100%)” value is “**** (equal to or higher than 180%)”.
The entry for `CCN1CCC(c2nc3ccc(-c4cc(F)c5nc(C)oc5c4)cc3c(=O)[nH]2)CC1` [Example 25, 2-(1-ethylpiperidin-4-yl)-6-(4-fluoro-2-methylu 1,3-benzoxazole-6-yl) kinazoline-4 (3H)-one] is “**** (equal to or higher than 180%)”; for `Cc1cn2cc(-c3ccc4c(=O)n(C5CCN(C)CC5)cnc4c3)ccc2n1` [Example 26, 7-(2-methylimidazo[1,2-a]pyridine-6-yl)-3-(1-methylpiperidin-4-yl) kinazoline-4 (3H)-one] it is “**** (equal to or higher than 180%)”.
For `Cc1nc2c(F)cc(-c3ccc4nc(C5CCN(C6CC6)CC5)[nH]c(=O)c4c3)cc2o1` [Example 27, 2-(1-cyclopropylpiperidin-4-yl)-6-(4-fluoro-2-methyl-1,3-benzoxazol-6-yl)quinazolin-4(3H)-one], the “Percentage of increase (FL-SMN mRNA standardized against GAPDH, DMSO control set as 100%)” value was “**** (equal to or higher than 180%)”.
Consider `Cc1nc2c(F)cc(-c3cc(F)c4nc(C5CCN(C6CC6)CC5)[nH]c(=O)c4c3)cc2o1` [Example 28, 2-(1-cyclopropylpiperidin-4-yl)-8-fluoro-6-(4-fluoro-2-methyl-1,3-benzoxazol-6-yl)quinazolin-4(3H)-one], for which the “Percentage of increase (FL-SMN mRNA standardized against GAPDH, DMSO control set as 100%)” value is “**** (equal to or higher than 180%)”.
For `Cc1nc2c(F)cc(-c3ccc4c(=O)n(C5CCN(C)CC5)cnc4c3)cc2o1` [Example 29, 7-(4-fluoro-2-methyl-1,3-benzoxazol-6-yl)-3-(1-methylpiperidin-4-yl)quinazolin-4(3H)-one], the “Percentage of increase (FL-SMN mRNA standardized against GAPDH, DMSO control set as 100%)” value is “**** (equal to or higher than 180%)”.
To `Cc1nc2ccc(-c3cc(F)c4nc(C5CCN(C)CC5)[nH]c(=O)c4c3)cc2o1` [Example 30, 8-fluoro-6-(2-methyl-1,3-benzoxazol-6-yl)-2-(1-methylpiperidin-4-yl)quinazolin-4(3H)-one] belongs “**** (equal to or higher than 180%)”; to `Cc1nc2ccc(-c3cc(F)c4nc(C5CCN(C6CC6)CC5)[nH]c(=O)c4c3)cc2o1` [Example 31, 2-(1-cyclopropylpiperidin-4-yl)-8-fluoro-6-(2-methyl-1,3-benzoxazol-6-yl)quinazolin-4(3H)-one], “**** (equal to or higher than 180%)”.
To `Cc1cn2cc(-c3ccc4nc(C5CCN(C6CC6)CC5)[nH]c(=O)c4c3)cc2cn1` [Example 32, 2-(1-cyclopropylpiperidin-4-yl)-6-(3-methylpyrrolo[1,2-a]pyrazin-7-yl)quinazolin-4(3H)-one] belongs “**** (equal to or higher than 180%)”; to `Cc1cn2cc(-c3cc(F)c4nc(C5CCN(C6CC6)CC5)[nH]c(=O)c4c3)cc2cn1` [Example 33, 2-(1-cyclopropylpiperidin-4-yl)-8-fluoro-6-(3-methylpyrrolo[1,2-a]pyrazin-7-yl)quinazolin-4(3H)-one acetate], “*** (equal to or higher than 150% but lower than 180%)”; to `Cc1nc2c(F)cc(-c3ccc4c(=O)n(C5CCN(C6CC6)CC5)cnc4c3)cc2o1` [Example 34, 3-(1-cyclopropylpiperidin-4-yl)-7-(4-fluoro-2-methyl-1,3-benzoxazol-6-yl)quinazolin-4(3H)-one], “**** (equal to or higher than 180%)”.
For the compound `COc1ccc(-c2cc(F)c3nc(C4CCN(C5CC5)CC4)[nH]c(=O)c3c2)cc1F` [Example 35, 2-(1-cyclopropylpiperidin-4-yl)-8-fluoro-6-(3-fluoro-4-methoxyphenyl) quinazolin-4(3H)-one], the “Percentage of increase (FL-SMN mRNA standardized against GAPDH, DMSO control set as 100%)” value is reported as “**** (equal to or higher than 180%)”.
On to `Cc1cn2nc(-c3nc4ccc(N5CCN(C6CC6)CC5)cc4c(=O)[nH]3)cc2c(C)n1` [Example 36, 6-(4-cyclopropylpiperazin-1-yl)-2-(4,6-dimethylpyrazolo[1,5-a]pyrazin-2-yl)quinazolin-4(3H)-one], for which the “Percentage of increase (FL-SMN mRNA standardized against GAPDH, DMSO control set as 100%)” value is “**** (equal to or higher than 180%)”.
On to `Cc1cn2cc(-c3ccc4nc(C5(F)CCN(C)CC5)[nH]c(=O)c4c3)ccc2n1` [Example 37, 2-(4-fluoro-1-methylpiperidin-4-yl)-6-(2-methylimidazo[1,2-a]pyridin-6-yl)quinazolin-4(3H)-one], for which the “Percentage of increase (FL-SMN mRNA standardized against GAPDH, DMSO control set as 100%)” value is listed as “*** (equal to or higher than 150% but lower than 180%)”.
Regarding `Cc1nc2c(F)cc(-c3ccc4nc(C5CCN(C(C)C)CC5)[nH]c(=O)c4c3)cc2o1` [Example 38, 6-(4-Fluoro-2-methyl-1,3-benzoxazol-6-yl)-2-(1-isopropylpiperidin-4-yl)quinazolin-4(3H)-one], the “Percentage of increase (FL-SMN mRNA standardized against GAPDH, DMSO control set as 100%)” value was “**** (equal to or higher than 180%)”.
For the compound `Cc1cn2cc(-c3ccc4c(=O)n(C5CCN(C6CC6)CC5)cnc4c3)cc(F)c2n1` [Example 39, 3-(1-cyclopropylpiperidin-4-yl)-7-(8-fluoro-2-methylimidazo[1,2-a]pyridin-6-yl)quinazolin-4(3H)-one], the “Percentage of increase (FL-SMN mRNA standardized against GAPDH, DMSO control set as 100%)” value was “*** (equal to or higher than 150% but lower than 180%)”.
The entry for `Cc1cn2cc(-c3cc(C)c4nc(C5CCN(C6CC6)CC5)[nH]c(=O)c4c3)cc(F)c2n1` [Example 40, 2-(1-cyclopropylpiperidin-4-yl)-6-(8-fluoro-2-methylimidazo[1,2-a]pyridin-6-yl)-8-methylquinazolin-4(3H)-one] is “**** (equal to or higher than 180%)”; for `Cc1nc2ccc(-c3nc4cc(C)c(C5CCN(C)CC5)cc4c(=O)[nH]3)cc2o1` [Example 41, 7-methyl-2-(2-methyl-1,3-benzoxazol-6-yl)-6-(1-methylpiperidin-4-yl)quinazolin-4(3H)-one] it is “* (equal to or higher than 100% but lower than 120%)”; for `CN1CCN(c2ccc3nc(C4=NOC5(CCN(C)CC5)C4)[nH]c(=O)c3c2)CC1` [Example 42, 2-(8-methyl-1-oxa-2,8-diazaspiro[4.5]dec-2-en-3-yl)-6-(4-methylpiperazin-1-yl)quinazolin-4(3H)-one] it is “* (equal to or higher than 100% but lower than 120%)”.
